Measured values reported in patent publication US12479817B2, “Substituted 3-(1-oxoisoindolin-2-yl)piperidine-2,6-dione derivatives and uses thereof” (Novartis AG, priority 2019, dated 2025).

How the values were obtained:
IKZF2 = target: T1, IKZF2 (Homo sapiens, UniProt Q96SW2+Q9UKS7); assay: Prolabel quantification of IKZF2 protein levels in 293GT cells; type: cell-based; details: Pro-label assay in 293GT cells; for IKZF2 Degradation (%): % degradation is at 10 μM; for AC50: read-out: IKZF2 Degradation AC50
T1 construct: expressed in transfected cells
T1 sequence (Q9UKS7 whole entry): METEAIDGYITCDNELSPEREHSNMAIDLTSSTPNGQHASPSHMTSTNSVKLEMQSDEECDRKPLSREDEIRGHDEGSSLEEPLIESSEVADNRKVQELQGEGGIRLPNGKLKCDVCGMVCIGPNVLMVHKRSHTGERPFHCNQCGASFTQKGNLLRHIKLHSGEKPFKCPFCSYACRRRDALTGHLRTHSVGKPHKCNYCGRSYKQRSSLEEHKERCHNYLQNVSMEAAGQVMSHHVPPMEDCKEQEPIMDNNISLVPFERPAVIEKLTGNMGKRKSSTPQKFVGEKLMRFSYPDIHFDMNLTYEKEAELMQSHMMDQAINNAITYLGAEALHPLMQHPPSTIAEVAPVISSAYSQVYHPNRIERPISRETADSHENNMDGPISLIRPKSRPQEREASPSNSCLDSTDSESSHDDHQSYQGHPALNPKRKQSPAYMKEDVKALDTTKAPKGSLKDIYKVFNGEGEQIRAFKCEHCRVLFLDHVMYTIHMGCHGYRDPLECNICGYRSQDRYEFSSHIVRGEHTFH
T1 sequence (Q96SW2 whole entry): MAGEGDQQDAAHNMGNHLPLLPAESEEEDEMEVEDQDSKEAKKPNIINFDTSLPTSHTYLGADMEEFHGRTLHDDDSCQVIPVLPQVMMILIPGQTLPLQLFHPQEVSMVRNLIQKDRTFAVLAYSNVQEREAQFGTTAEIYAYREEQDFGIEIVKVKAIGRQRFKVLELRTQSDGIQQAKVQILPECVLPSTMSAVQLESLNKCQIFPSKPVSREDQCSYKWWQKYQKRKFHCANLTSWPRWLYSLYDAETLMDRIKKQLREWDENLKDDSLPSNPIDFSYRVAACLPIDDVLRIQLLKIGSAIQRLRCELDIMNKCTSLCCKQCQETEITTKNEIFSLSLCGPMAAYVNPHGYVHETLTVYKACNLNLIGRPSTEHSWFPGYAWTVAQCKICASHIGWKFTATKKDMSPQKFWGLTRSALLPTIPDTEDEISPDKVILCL
T1 sequence (Q16531 whole entry partner): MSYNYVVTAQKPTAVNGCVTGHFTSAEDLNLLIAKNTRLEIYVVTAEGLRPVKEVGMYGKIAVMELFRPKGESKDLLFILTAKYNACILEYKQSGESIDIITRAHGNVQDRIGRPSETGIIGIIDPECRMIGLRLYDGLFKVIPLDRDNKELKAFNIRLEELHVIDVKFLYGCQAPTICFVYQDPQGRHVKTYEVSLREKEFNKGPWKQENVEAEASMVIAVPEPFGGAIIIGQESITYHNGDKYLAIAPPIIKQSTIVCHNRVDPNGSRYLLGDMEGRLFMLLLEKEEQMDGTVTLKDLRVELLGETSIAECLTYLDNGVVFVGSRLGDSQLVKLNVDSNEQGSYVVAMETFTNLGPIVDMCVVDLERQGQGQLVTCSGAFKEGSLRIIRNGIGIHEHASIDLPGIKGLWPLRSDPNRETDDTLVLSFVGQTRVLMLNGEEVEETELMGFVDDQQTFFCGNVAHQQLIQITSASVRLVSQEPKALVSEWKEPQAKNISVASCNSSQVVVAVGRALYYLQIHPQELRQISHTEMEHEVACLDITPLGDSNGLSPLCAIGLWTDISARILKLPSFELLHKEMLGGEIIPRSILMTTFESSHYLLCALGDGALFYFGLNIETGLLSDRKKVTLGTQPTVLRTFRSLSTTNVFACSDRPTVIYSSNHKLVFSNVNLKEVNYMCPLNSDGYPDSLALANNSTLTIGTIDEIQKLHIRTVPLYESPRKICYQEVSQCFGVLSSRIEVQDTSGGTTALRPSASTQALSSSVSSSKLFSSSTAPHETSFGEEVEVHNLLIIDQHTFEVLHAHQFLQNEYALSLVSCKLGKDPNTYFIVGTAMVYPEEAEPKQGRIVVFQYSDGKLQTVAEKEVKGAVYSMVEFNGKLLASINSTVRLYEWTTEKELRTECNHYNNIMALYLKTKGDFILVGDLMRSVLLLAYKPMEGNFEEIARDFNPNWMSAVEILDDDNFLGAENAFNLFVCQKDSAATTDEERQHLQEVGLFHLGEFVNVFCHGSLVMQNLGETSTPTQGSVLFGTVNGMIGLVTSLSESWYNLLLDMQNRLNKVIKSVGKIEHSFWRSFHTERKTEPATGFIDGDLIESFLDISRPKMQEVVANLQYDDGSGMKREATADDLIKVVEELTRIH
Procedure: (§1) The Prolabel system from DiscoverX was used to develop high-throughput and quantitative assays to measure changes in IKZF1, IKZF2 and GSPT1 protein levels in response to compounds. The prolabel tag was derived from the alpha fragment of beta galactosidase and has the following protein sequence: mssnslavvlqadwenpgvtqlnrlaahppfaswrnseeartdrpsqqlislnge. The complementary fragment of beta-galactosidase (from DiscoverX), is added to the prolabel tag to form an active beta galactosidase enzyme whose activity can be precisely measured. In this way, the levels of a fusion protein with the prolabel tag can be quantified in cell lysates.
(§2) Lentiviral vectors, based on the Invitrogen pLenti6.2/V5 DEST backbone, were constructed that placed the prolabel tag upstream of IKZF1, IKZF2 or GSPT1 and expressed the fusion protein from a CMV promoter.
(§3) To ensure moderate and consistent expression of the prolabel fusion proteins across all cells in the population, stable cell lines were constructed from cells expressing a single copy of the construct. Lentivirus packaged with the constructs was made using the Virapower kit from Invitrogen.
(§4) The levels of prolabel tagged fusion proteins in compound treated cell lines were measured as follows:
(§5) Day 1, Cells were diluted to 1.0×10^6 cells/ml in normal growth medium. 17.5 μL, of cells were plated in each well of a solid white 384 well plate. Plates were incubated overnight in a 37° C. tissue culture incubator.
(§6) Day 2, Serial dilutions of compounds were made in 384 well plates from 10 mM stocks. 15 μL, of DMSO was added to each well of a 384 well plate. In the first column, 15 μL of stock compound was added. The solution was mixed and 15 μL was transferred to the next column. This was repeated until 20 two-fold dilutions were prepared. 2.5 μL, of diluted compounds were transferred into 60 μL of cell culture medium in another 384 well plate, and mixed well. 2.5 μL of this mixture was added to the plated cells. The final DMSO concentration was 0.5% and the highest concentration of compound was 50 μM. Plates were incubated overnight (e.g., about 14 h, 18 h, or 24 h) in a 37° C. tissue culture incubator.
(§7) Day 3, Plates were removed from the incubator and allowed to equilibrate at rt for 30 minutes. Prolabel substrate (DiscoverX PathHunter Prolabel Detection Kit, User manual: 93-0180) was added as described by the manufacturers protocols. Plates were incubated at rt for three hours and luminescence was read using an Envision reader (Perkin Elmer) Data was analyzed and visualized using the Spotfire software package.

IKZF1 = target: T2, IKZF1 (Homo sapiens, UniProt Q13422+Q96SW2); assay: Prolabel quantification of IKZF1 protein levels in 293GT cells; type: cell-based; details: Pro-label assay in 293GT cells; for AC50: read-out: IKZF1 Degradation AC50; for IKZF1 Degradation (%): % degradation is at 10 μM
T2 construct: expressed in transfected cells
T2 sequence (Q13422 whole entry): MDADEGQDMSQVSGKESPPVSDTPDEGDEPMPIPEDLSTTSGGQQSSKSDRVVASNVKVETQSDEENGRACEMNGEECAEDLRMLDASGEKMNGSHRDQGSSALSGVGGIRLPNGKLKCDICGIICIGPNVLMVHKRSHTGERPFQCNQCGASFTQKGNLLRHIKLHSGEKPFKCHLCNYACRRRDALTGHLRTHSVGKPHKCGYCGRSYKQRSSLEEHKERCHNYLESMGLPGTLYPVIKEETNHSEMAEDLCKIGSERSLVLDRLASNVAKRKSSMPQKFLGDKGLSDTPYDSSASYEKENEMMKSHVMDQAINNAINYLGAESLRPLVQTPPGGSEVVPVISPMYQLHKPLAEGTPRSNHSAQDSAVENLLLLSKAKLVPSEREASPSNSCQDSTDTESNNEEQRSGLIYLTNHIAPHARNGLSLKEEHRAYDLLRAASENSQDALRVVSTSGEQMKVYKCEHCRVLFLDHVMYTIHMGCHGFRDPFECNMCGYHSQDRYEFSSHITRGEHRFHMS
T2 sequence (Q96SW2 whole entry): as the sequence (Q96SW2 whole entry) above
T2 sequence (Q16531 whole entry partner): as the sequence (Q16531 whole entry partner) above
Procedure: as §1, §2, §3, §4, §5, §6, §7

Compound	IKZF2 Degradation (%) (IKZF2)	AC50 (IKZF2) [nM]	AC50 (IKZF1) [nM]	IKZF1 Degradation (%) (IKZF1)
CO[C@H]1CC[C@H](CN2CCC(c3ccc4c(c3Cl)CN(C3CCC(=O)NC3=O)C4=O)CC2)CC1 (stereo partly drawn) [Compound I-17, 3-(4-chloro-5-(1-(((1r,4r)-4-methoxycyclohexyl)methyl)piperidin-4-yl)-1-oxoisoindolin-2-yl)piperidine-2,6-dione]	30	75	130	40
COc1c(C2=CCN(Cc3ccccc3)CC2)ccc2c1CN(C1CCC(=O)NC1=O)C2=O (stereo not drawn) [Compound I-20, 3-(5-(1-benzyl-1,2,3,6-tetrahydropyridin-4-yl)-4-methoxy-1-oxoisoindolin-2-yl)piperidine-2,6-dione]	42	200	66	40
Nc1cccc2c1C(=O)N(C1CCC(=O)NC1=O)C2=O (stereo not drawn) [Pomalidomide, 4-amino-2-(2,6-dioxopiperidin-3-yl)isoindoline-1,3-dione, reference compound]				80

More lines, now with the values ahead:

IKZF2 Degradation (%) (IKZF2)	AC50 (IKZF2) [nM]	AC50 (IKZF1) [nM]	IKZF1 Degradation (%) (IKZF1)	Compound
33	260	> 30000		O=C1CCC(N2Cc3nc(C4CCN(Cc5ccccc5)CC4)ccc3C2=O)C(=O)N1 (stereo not drawn) [Compound I-1, 3-(2-(1-benzylpiperidin-4-yl)-5-oxo-5,7-dihydro-6H-pyrrolo[3,4-b]pyridin-6-yl)piperidine-2,6-dione]
	> 30000	> 30000		O=C1CCC(N2Cc3cc(C4CCN(Cc5ccccc5)CC4)ncc3C2=O)C(=O)N1 (stereo not drawn) [Compound I-2, 3-(6-(1-benzylpiperidin-4-yl)-3-oxo-1,3-dihydro-2H-pyrrolo[3,4-c]pyridin-2-yl)piperidine-2,6-dione]
72	6	> 30000		O=C1CCC(N2Cc3c(ccc(C4CCN(Cc5ccccc5)CC4)c3F)C2=O)C(=O)N1 (stereo not drawn) [Compound I-3, 3-(5-(1-benzylpiperidin-4-yl)-4-fluoro-1-oxoisoindolin-2-yl)piperidine-2,6-dione]
59	110	> 30000		Cc1c(C2CCN(Cc3ccccc3)CC2)ccc2c1CN(C1CCC(=O)NC1=O)C2=O (stereo not drawn) [Compound I-5, 3-(5-(1-benzylpiperidin-4-yl)-4-methyl-1-oxoisoindolin-2-yl)piperidine-2,6-dione]
42	560	7600	22	O=C1CCC(N2Cc3cc(C4CCN(Cc5ccncc5)CC4)c(F)cc3C2=O)C(=O)N1 (stereo not drawn) [Compound I-16, 3-(6-fluoro-1-oxo-5-(1-(pyridin-4-ylmethyl)piperidin-4-yl)isoindolin-2-yl)piperidine-2,6-dione]
